In ChEMBL document CHEMBL1123518, “Synthesis and biological evaluation of irreversible inhibitors of aldose reductase” (J Med Chem, 1986):

Assays:
[1] = biological target: Aldo-keto reductase family 1 member B1 (Rattus norvegicus, UniProt P07943); test: Compound was tested for 50% inhibitory concentration that was required for irreversible inhibition of aldose reductase
[2] = biological target: Aldo-keto reductase family 1 member B1 (Rattus norvegicus) (UniProt P07943); test: Compound was tested for % inhibition against RLAR (aldose reductase) at a concentration of 10 micro M.
[3] = biological target: Aldo-keto reductase family 1 member B1 (Rattus norvegicus) (UniProt P07943); test: Compound was tested for % inhibition against RLAR (aldose reductase)at a concentration of 10 uM, pre-incubated with 100 uM sorbinil

Row | IC50 [1] | Structure (SMILES) | inhibition [2] | inhibition [3]
1 | 38 µM | COC(=O)CN1C(=O)c2cccc3cc(N=[N+]=[N-])cc(c23)C1=O | – | –
2 | 14 µM | COC(=O)CN1C(=O)c2cccc3cc(N=C=S)cc(c23)C1=O | – | –
3 | 3.6 µM | [N-]=[N+]=Nc1cc2c3c(cccc3c1)C(=O)N(CC(=O)O)C2=O | – | –
4 | – | S=C=Nc1ccccc1 | 34% | 5%
5 | 0.3 µM | O=C(O)CN1C(=O)c2cccc3cc(N=C=S)cc(c23)C1=O | 57% | 5%
